Ends that are not written are not given here.
Key:
[1] = system: Escherichia coli, Pseudomonas aeruginosa, Staphylococcus aureus, and Listeria monocytogenes; assay type: cell-based
Method: The antibacterial activity was examined using a microdilution assay with Eschrichia coli (ATCC 25922), P. aeruginosa (ATCC 15692) and Staphylococcus aureus (ATCC 25923), which were obtained from the American Type Culture Collection. Listeria monocytogenes (KCTC 3710) was obtained from the Korean Collection for Type Cultures. Cell survival was investigated using the 3-(4,5-dimethylthiazol-2-yl)-2,5-diphenyltetrazolium bromide assay in RAW264.7 cells. The assay was performed as described previously.

Balb/c mice lungs = assay: LPS-induced acute lung injury (ALI) in mice; assay type: in vivo; conditions: 1 mg/kg intratracheal, 3 days, histology
Method: Figure 8 In vivo anti-inflammatory effects of peptides in acute lung injury. Pseudomonas aeruginosa LPS (500 ng) was intratracheally instilled in mice lungs. One hour after instillation, peptides were intratracheally administered, followed by monitoring for 3 days. Lungs collected from the euthanized mice were digitally visualized and tissues were stained using eosin/alcian blue, H&E, PE-conjugated TNF-α, and IL6 antibody. Bar is 50 µm.
P. aeruginosa LPS (500 ng) in 50 µL PBS was intratracheally instilled into seven-week-old female Balb/c mice. One hour after exposure, each peptide was intratracheally administered at the indicated dose in 50 µL PBS. Control mice were injected with 50 µL PBS without the peptides. Mice were monitored for signs of morbidity for 3 days after LPS exposure. Mice were euthanized using CO2 inhalation, and the lung tissues were excised and fixed in 4% paraformaldehyde. The fixed tissues were dehydrated using a series of ethanol solutions (50−100%) and embedded in paraffin. The tissues embedded with paraffin were sectioned with a thickness of 5 µm (Leica microtome, Deerfield, MA, USA). Histopathology of the lung tissues was performed using alcian blue and eosin and H&E staining. […] The stained tissue sections were observed under a fluorescence microscope (OPTINIT KCS3-160S; Korea Lab Tech, Seongnam, Gyeonggi-do, Republic of Korea).

RAW 264.7 cells [2] = assay: LPS-stimulated ROS generation (H2DCFDA fluorescence microscopy); assay type: cell-based, murine; conditions: RAW 264.7, peptides 8 µM pre-incubated 30 min, P. aeruginosa LPS 100 ng/mL, 24 h
Method: Figure 3 CD spectra of peptides in LPS and effects of peptides on reactive oxygen species (ROS) production. (A) Secondary structures of WIK-10, WIR-10, WIK-14, and WIKE-14 peptides (50 µM) in 1 µg/mL Pseudomonas aeruginosa LPS. (B) RAW 264.7 cells were pre-incubated in the absence or presence of peptides (8 µM) for 30 min and treated with or without LPS (100 ng/mL). After 24 h incubation, the cells were treated using H2DCFDA and incubated for […], following which the fluorescent cells were observed under a fluorescence microscope.
RAW 264.7 cells (1 × 10^6 cells/mL) plated in a 24-well plate were pre-cultured for 24 h. Peptides in RPMI-1640 medium were then pretreated to cells for 30 min and P. aeruginosa LPS (100 ng/mL) was added, followed by additional incubation for 24 h. Control cells are not treated with peptides and LPS. H2DCFDA (10 µL, final concentration 10 µM) was treated to the cells, followed by incubation for 30 min in a CO2 incubator. The cells washed with cold-PBS buffer were then observed using a fluorescence microscope (OPTINIT KCS3-160S; Korea Lab Tech, Seongnam, Gyeonggi-do, Republic of Korea).

RAW 264.7 cells [3] = assay: Cytokine mRNA (IL-6, TNF-α) in LPS-stimulated RAW 264.7 cells (RT-PCR); assay type: cell-based, murine; conditions: RAW 264.7, LPS 1 μg/mL, 32 μM peptide, 8 h, compared to only LPS-treated cells
Method: (§1) Figure 6 Anti-inflammatory effects of peptides in RAW 264.7 cells. (A) Secreted nitric oxide and tumor necrosis factor-α were measured from the supernatants after 24 h of LPS-stimulation with peptides (32 µM). (B) mRNA expression of RAW 264.7 cells with peptides. IL-6, interleukin-6, TNF- α, tumor necrosis factor-α; GAPDH, Glyceraldehyde 3-phosphate dehydrogenase. 1: control, 2: LPS, 3: LPS+Polymyxin B, 4: LPS+KIW-10, 5: LPS+WIK-10, 6: LPS+RIW-10, 7: LPS+WIR-10, 8: LPS+KIW-14, 9: LPS+WIK-14, 10: LPS+WIKE-14.
RAW 264.7 cells were cultured in RPMI-1640 medium containing 10% FBS, and then seeded to 5 × 10^6 cells/mL in a 6-well plate and cultured at 37 °C, 5% CO2 incubator for 24 h. Each well was treated with 1 μg/mL of LPS; after 1 h, 32 μM of each peptide was added and incubated for 8 h. Cells were collected, and total RNA was isolated using TRIzol reagent (Thermo Fisher Scientific, Waltham, MA, USA). 5′-[…]-3′ and 5′-[…]-3′ as Glyceraldehyde 3-phosphate dehydrogenase primers, 5′-[…]-3′ and 5′-[…]-3′ as IL-6 primers, and 5′-[…]-3′ and 5′-[…]-3′ as TNF-α primers were used for reverse transcription-polymerase chain reaction (RT-PCR). The PCR products generated using the Maxime RT-PCR premix kit (IntronBio, Seongnam, Gyeonggi-do, Republic of Korea) were confirmed using electrophoresis.

[4] = system: binding between LPS and RAW 264.7 cells; assay: Inhibition of FITC-LPS binding to RAW 264.7 cells (fluorescence microscopy and flow cytometry); assay type: cell-based, murine; conditions: FITC-LPS 1 µg/mL, fluorescence microscopy, dose-dependent
Method: Figure 4 Inhibitory effects of peptides on binding between LPS and RAW 264.7 cells. Fluorescein isothiocyanate-labeled LPS and peptides were incubated for 12 h with RAW 264.7 cells, and cells were washed with PBS, followed by observation using fluorescence microscopy.
RAW 264.7 cells cultured in Roswell Park Memorial Institute Medium (RPMI)-1640 containing 10% fetal bovine serum (FBS) were aliquoted to 1 × 10^6 cells/mL in a 24-well plate, and cultured at 37 °C, 5% CO2 incubator for 24 h. Each well was treated with 1 µg/mL of FITC-attached LPS. After 1 h, peptides were added to the wells at the indicated concentrations. After incubation for 8 h, the cells were washed with cold-PBS, observed under a fluorescence microscope, and measured using flow cytometry (Beckman Coulter CytoFlex, Brea, CA, USA).

RAW 264.7 cells [5] = assay: Nitric oxide production in LPS-stimulated RAW 264.7 cells (Griess); assay type: cell-based, murine; conditions: RAW 264.7, P. aeruginosa LPS 1 µg/mL, peptides 32 µM, 24 h, Griess reagent
Method: as §1
The murine macrophage cell RAW 264.7 was grown RPMI-1640 medium supplemented with 10% FBS and then plated at a density of 1 × 10^6 cells/mL in a 24-well microplate. After incubation for 24 h, the cells were stimulated with P. aeruginosa LPS (1 µg/mL), followed by further incubation for 1 h. Peptides were incubated for 24 h. Nitrite was measured by adding 100 µL of cell culture extract to 100 µL of Griess reagent (1% sulfanilamide and 0.1% naphthylenediamine in 5% phosphoric acid). The nitrite concentrations were calculated by comparing the absorbance of sodium nitrite standard solutions. The optical density was evaluated at 550 nm in a microplate reader (Molecular Devices, Emax, CA, USA). TNF-α levels in culture supernatants were analyzed using the R&D system TNF-α EASIA kit, Minneapolis, MN, USA). The developed color was determined by measuring the OD at 490 nm in a microplate reader.

Substance | GM, geometric mean of minimum inhibitory concentration values [1] [µM] | further results
KKIIKKIIKKIWKW-NH2 [KIW-14] | 2.6 ± 1.2 | –
KKIIKKIWKW-NH2 [KIW-10] | 11 ± 1 | –
KKIWKKWIKI-NH2 [KWI-10] | 10.5 ± 1.2 | –
KKIWKKWIKKIIKI-NH2 [KWI-14] | 2.6 ± 0.8 | –
RRIIRRIWRW-NH2 [RIW-10] | 8.5 ± 0.8 | –
RRIWRRWIRI-NH2 [RWI-10] | 7 ± 1.2 | –
WIKKIWKKIIKEIK-NH2 [WIKE-14] | 8 ± 0.8 | toxicity in lung tissue cells, peptide alone (Balb/c mice lungs): non-toxic
WIKKIWKKIIKKIK-NH2 [WIK-14] | 2.1 ± 0.4 | toxicity in lung tissue cells, peptide alone (Balb/c mice lungs): toxic
WIKKIWKKIK-NH2 [WIK-10] | 6.5 ± 0.8 | –
WIRRIWRRIR-NH2 [WIR-10] | 3 ± 0.2 | –
melittin | – | ROS-producing level of LPS-treated cells (RAW 264.7 cells [2]): significantly reduced
polymyxin B | – | ROS-producing level of LPS-treated cells (RAW 264.7 cells [2]): significantly reduced; expression levels of IL-6 and TNF-α (mRNA) (RAW 264.7 cells [3]): clearly decreased; FITC fluorescence signals in RAW 264.7 cells (FITC-LPS binding) [4]: dramatically decreased; LPS-induced NO secretion (RAW 264.7 cells [5]): inhibited

From article PMC9686674, “Potent Anti-Inflammatory Effects of a Helix-to-Helix Peptide against Pseudomonas aeruginosa Endotoxin-Mediated Sepsis” (Antibiotics, 2022)
